Reference: patent US7332476B2, “Pyridyl substituted ketolide antibiotics” (Novartis AG, priority 2003, dated 2008)
Values after ≈ are worked out from the molar mass of the structure shown.

Legend:
Experiment in all cases: MIC, broth microdilution (NCCLS)
Assay type in all cases: cell-based
[1] = tested on: Streptococcus pneumoniae Stpn_Mef 5654; parameters: MIC, strain ID R: unit not given beside the values; settings: for MIC: Table 10, Strain ID P (Table 8): Streptococcus pneumoniae Stpn_Mef 5654, in µg/mL (unit assumed)
Procedure, shortened: (§1)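 NCCLS broth microdilution with 2-fold serial drug dilutions (methanol stocks diluted in water); inoculum 3×10^5–7×10^5 CFU/ml in CAMHB, with 2-5% lysed horse blood for S. pneumoniae. Incubation 18-24 h at 35° C., ambient air, except S. pneumoniae (5-10% CO2). MIC is lowest concentration preventing visible growth.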

[2] = tested on: Staphylococcus epidermidis Step_f50654; settings: in µg/mL (unit assumed); for MIC: Table 10, Strain ID D (Table 8): Staphylococcus epidermidis Step_f50654
Procedure, shortened: as §1

[3] = tested on: Staphylococcus epidermidis Step_14990; settings: in µg/mL (unit assumed); for MIC: Table 10, Strain ID C (Table 8): Staphylococcus epidermidis Step_14990
Procedure, shortened: as §1

[4] = tested on: Haemophilus influenzae Hain_49247; settings: unit assumed; for MIC: Table 10, Strain ID H (Table 8): Haemophilus influenzae Hain_49247
[5] = tested on: Streptococcus pneumoniae Stpn_Mef S 3427; settings: Table 10, Strain ID Q (Table 8): Streptococcus pneumoniae Stpn_Mef S 3427; in µg/mL (unit assumed)
Procedure, shortened: as §1

[6] = tested on: Enterococcus faecalis Enfa_29212; settings: in µg/mL (unit assumed); for MIC: Table 10, Strain ID E (Table 8): Enterococcus faecalis Enfa_29212
Procedure, shortened: as §1

[7] = tested on: Streptococcus pneumoniae Stpn_Erm S 4297; settings: for MIC: Table 10, Strain ID R (Table 8): Streptococcus pneumoniae Stpn_Erm S 4297
Procedure, shortened: as §1

[8] = tested on: Staphylococcus aureus Stau_29213; settings: in µg/mL (unit assumed); for MIC: Table 10, Strain ID A (Table 8): Staphylococcus aureus Stau_29213
Procedure, shortened: as §1

[9] = tested on: Streptococcus pneumoniae Stpn_297-749; parameters: MIC, strain ID N: unit not given here; settings: for MIC: Table 10, Strain ID N (Table 8): Streptococcus pneumoniae Stpn_297-749
Procedure, shortened: as §1

[10] = tested on: Haemophilus influenzae Hain_2762; settings: in µg/mL (unit assumed); for MIC: Table 10, Strain ID L (Table 8): Haemophilus influenzae Hain_2762
Procedure, shortened: (§2)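 NCCLS broth microdilution, inoculum 3×10^5–7×10^5 CFU/ml, 2-fold drug dilutions; CAMHB for staphylococci and enterococci, Haemophilus Test Medium for H. influenzae. Incubated 35 °C for 18-24 hours, ambient air or 5-10% CO2 for H. influenzae; MIC is lowest concentration preventing visible growth.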

[11] = tested on: Enterococcus faecalis Enfa_bc 11148-2; settings: in µg/mL (unit assumed); for MIC: Table 10, Strain ID F (Table 8): Enterococcus faecalis Enfa_bc 11148-2
Procedure, shortened: as §2

[12] = tested on: Staphylococcus aureus Stau_33591; settings: unit assumed; for MIC: Table 10, Strain ID B (Table 8): Staphylococcus aureus Stau_33591
Procedure, shortened: as §2

[13] = tested on: Haemophilus influenzae Hain_960820544-3; settings: in µg/mL (unit assumed); for MIC: Table 10, Strain ID J (Table 8): Haemophilus influenzae Hain_960820544-3
Procedure, shortened: as §2

[14] = tested on: Haemophilus influenzae Hain_953460299-3; settings: in µg/mL (unit assumed); for MIC: Table 10, Strain ID K (Table 8): Haemophilus influenzae Hain_953460299-3
Procedure, shortened: as §2

[15] = tested on: Haemophilus influenzae Hain_960730503-3; settings: in µg/mL (unit assumed); for MIC: Table 10, Strain ID I (Table 8): Haemophilus influenzae Hain_960730503-3
Procedure, shortened: as §2

[16] = tested on: Streptococcus pneumoniae Stpn_280-962; parameters: MIC, strain ID O: unit not given beside the values; settings: for MIC: Table 10, Strain ID O (Table 8): Streptococcus pneumoniae Stpn_280-962
Procedure, shortened: as §1

Row | SMILES | MIC [1] | MIC [2] | MIC [3] | MIC [4] [µg/mL] | MIC [5] | MIC [6] | MIC ([7]; unit assumed) [µg/mL] | MIC [8] | MIC [9] | MIC [10] | MIC [11] | MIC [12] [µg/mL] | MIC [13] | MIC [14] | MIC [15] | MIC [16] | MIC [7] | other results
1 | C=C[C@]12OC(=O)N(CCCCn3cnc(-c4ccc(OC)nc4)c3)[C@@H]1[C@@H](C)C(=O)[C@H](C)C[C@](C)(OC)[C@H](OC1O[C@H](C)C[C@H](N(C)C)[C@H]1O)[C@@H](C)C(=O)[C@@H](C)C(=O)O[C@@H]2CC (stereo partly shown) [XVIII] | 0.78 | 0.2 | 0.2 | 6.25 (≈ 7.32 µM) | 0.2 | 0.1 | 0.1 (≈ 0.117 µM) | 0.2 | =0.05 | 1.56 | 0.78 | > 50 | 6.25 | 6.25 | 6.25 | =0.05 |  | 
2 | CC[C@H]1OC(=O)[C@@](C)(F)C(=O)[C@H](C)[C@@H](OC2O[C@H](C)C[C@H](N(C)C)[C@H]2O)[C@@](C)(OC)C[C@@H](C)C(=O)[C@H](C)[C@H]2N(CCCCn3cnc(-c4ccc(C)nc4)c3)C(=O)O[C@]12CC (stereo partly shown) [XIV] | 0.78 | 0.4 | 0.2 | 6.25 (≈ 7.28 µM) | 0.1 | 0.2 | 0.1 (≈ 0.117 µM) | 0.2 | =0.05 | 1.56 | 1.56 | > 50 | 6.25 | 6.25 | 6.25 | =0.05 |  | 
3 | CC[C@H]1OC(=O)[C@H](C)C(=O)[C@H](C)[C@@H](O[C@@H]2O[C@H](C)C[C@H](N(C)C)[C@H]2O)[C@](C)(OC)C[C@@H](C)C(=O)[C@H](C)[C@H]2N(CCCCn3cnc(-c4cccnc4)c3)C(=O)O[C@]12C [Telithromycin, telithromycin, reference compound] | 0.2-0.78 | 0.1-0.2 | 0.1-0.2 | 3.13 (≈ 3.85 µM) | 0.1-0.2 | 0.1-0.2 |  | 0.1-0.2 | =0.05 | 0.78-1.56 | 0.4-0.78 | > 50 | 3.13-6.25 | 3.13-6.25 | 3.13-6.25 | =0.05 | =0.1 | MIC, strain ID R ([1]; strain ID R, broth microdilution): =0.1; MIC, strain ID D ([2]; strain ID D, broth microdilution): 0.1-0.2; MIC, strain ID C ([3]; strain ID C, broth microdilution): 0.1-0.2; MIC, strain ID H ([4]; strain ID H, broth microdilution): 3.13 µg/mL (≈ 3.85 µM); MIC, strain ID E ([6]; strain ID E, broth microdilution): 0.1-0.2; MIC, strain ID Q ([7]; strain ID Q, broth microdilution, in µg/mL (unit assumed)): 0.1-0.2; MIC, strain ID A ([8]; strain ID A, broth microdilution): 0.1-0.2; MIC, strain ID N ([9]; strain ID N, broth microdilution): =0.05; MIC, strain ID L ([10]; strain ID L, broth microdilution): 0.78-1.56; MIC, strain ID F ([11]; strain ID F, broth microdilution): 0.4-0.78; MIC, strain ID B ([12]; strain ID B, broth microdilution): > 50 µg/mL; MIC, strain ID J ([13]; strain ID J, broth microdilution): 3.13-6.25; MIC, strain ID K ([14]; strain ID K, broth microdilution): 3.13-6.25; MIC, strain ID I ([15]; strain ID I, broth microdilution): 3.13-6.25; MIC, strain ID O ([16]; strain ID O, broth microdilution): =0.05
4 | C=C[C@]12OC(=O)N(CCCCn3cnc(-c4ccc(C)nc4)c3)[C@@H]1[C@@H](C)C(=O)[C@H](C)C[C@](C)(OC)[C@H](OC1O[C@H](C)C[C@H](N(C)C)[C@H]1O)[C@@H](C)C(=O)[C@@H](C)C(=O)O[C@@H]2CC (stereo partly shown) [XVI] | 0.78 | 0.2 | 0.2 | 6.25 (≈ 7.46 µM) | 0.1 | 0.1 |  | 0.2 | =0.05 | 1.56 | 0.78 | > 50 | 6.25 | 6.25 | 6.25 | =0.05 | =0.05 | 
